Results on 16 molecules are retold here after patent publication US9150558B2, “Nicotine receptor targeted compounds and compositions” (University of Florida Research Foundation, priority 2011, dated 2015).

The target of assay [1] is T1, α4β2 Receptor (alpha4beta2 nAChR) (Rattus norvegicus, UniProt P09483+P12390).
T1 construct: protein concentration of the rat brain membranes contained in the pellet; tissue Pel-Freeze Biologicals; host or cells: whole male Sprague-Dawley rat brain membranes
Kind of assay: Displacement binding of 3H-cytisine to rat brain membranes (α4β2 nAChR). On the procedure:
(§1) Whole male Sprague-Dawley rat brains (Pel-Freeze Biologicals, Rogers, Ariz.) were homogenized with a 30 ml Wheaton (location) glass homogenizing tube and pestle in binding saline (120 mM NaCl, 5 mM KCl, 2 mM CaCl2, 1 mM MgCl2, 50 mM Tris-TrisHCl buffer, pH 7.4). After the homogenate was centrifuged at 11,000 rpm (convert to ×G) for a 10 min, the resulting pellet was resuspended in fresh binding saline and homogenized and centrifuged again. A protein assay (BCA, Pierce, Rockford, Ill.) was then performed to obtain the protein concentration of the rat brain membranes contained in the pellet, which was stored at −85° C. before use.
Radioligands used in the displacement binding assays were obtained from Perkin Elmer Life and Analytical Sciences (Boston, Mass.). ^3H-Cytisine was used to selectively bind to alpha4beta2 nAChRs and ^125I-α-bungarotoxin (α-Btx) for alpha? nAChRs. ^3H-Cytisine (34 Ci/mmol) experiments were performed according to Flores et al. (1992) with a few minor alterations, specifically that the incubation time was increased to four hours at 4° C. to assure binding equilibrium. The ^125I-α-Btx (136 Ci/mmol) experiments involved 37° C. incubation for three hours to assure equilibration. Both radioligands were generally tested at final concentrations of 1 nM. Membranes at the above mentioned concentrations were suspended in binding saline containing 2 mg/ml of bovine serum albumin (Sigma, St. Louis, Mo.) to reduce non-specific binding. For each radioligand, nonspecific binding was measured in the presence of a final concentration of 1 mM (S)-nicotine hydrogen tartrate salt (Sigma, St. Louis, Mo.). After incubation, radioligand bound to membranes in 48 tubes was rapidly collected by vacuum filtration using a Brandel cell harvester (Gaithersburg, Md.) and Whatman GF/C glass fiber filters that were pre-soaked in 0.5% polyethylenimine for 45 minutes to reduce nonspecific binding. The radiolabeled membranes were rapidly washed three times with 3 ml ice-cold binding saline to separate bound from free radioligand. Filters containing ^3H-cytisine bound membranes were placed in 20 ml scintillation tubes and suspended in 8 mls of 30% Scintisafe scintillation fluid (Fisher), then counted in a Beckman LS-6500 liquid scintillation counter (Fullerton, Calif.). Filters containing ^125I-α-Btx bound membranes were placed in 4 ml scintillation vials and counted in a Beckman 5500B gamma counter (Fullerton, Calif.).
Displacement assay binding data were analyzed using GraphPad Prism software (San Diego, Calif.). The mean counts per minute values for each concentration of a given compound concentration were obtained from 4 replicates. The data were fitted to a sigmoidal concentration response curve from which the Hill slope (n) and IC50 (X) values were estimated: Y=Bottom+(Top−Bottom)/(1+10^(Log IC50-X)n) Here, Top=maximal specific binding of radioligand at the top of the curve and Bottom=minimum specific binding observed at high concentrations of the displacing ligand. […] Results and Discussion

The target of assay [2] is T2, α7 Receptor (alpha7 nAChR) (Rattus norvegicus, UniProt Q05941).
T2 construct: protein concentration of the rat brain membranes contained in the pellet; tissue Pel-Freeze Biologicals; host or cells: whole male Sprague-Dawley rat brain membranes
T2 sequence (Q05941 23-502): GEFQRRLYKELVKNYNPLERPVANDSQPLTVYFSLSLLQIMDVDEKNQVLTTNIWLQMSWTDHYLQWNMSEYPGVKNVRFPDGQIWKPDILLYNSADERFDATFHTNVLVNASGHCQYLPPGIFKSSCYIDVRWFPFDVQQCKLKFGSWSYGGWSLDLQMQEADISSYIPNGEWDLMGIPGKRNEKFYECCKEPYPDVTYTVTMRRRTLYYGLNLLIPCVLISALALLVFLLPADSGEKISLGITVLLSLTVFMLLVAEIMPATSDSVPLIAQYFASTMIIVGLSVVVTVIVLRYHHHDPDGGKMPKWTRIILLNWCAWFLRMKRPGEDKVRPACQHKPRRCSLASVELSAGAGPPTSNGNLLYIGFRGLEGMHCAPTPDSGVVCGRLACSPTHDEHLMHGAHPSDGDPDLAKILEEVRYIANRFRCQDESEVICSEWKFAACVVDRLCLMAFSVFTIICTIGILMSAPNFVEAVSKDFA
Nature of the assay: Displacement binding of 125I-α-bungarotoxin to rat brain membranes (α7 nAChR). The note with it: for α7/α4β2 Selectivity (Selectivity factor): Ki for alpha4beta2 binding divided by Ki for alpha7 binding, rat brain; for Enantiomeric Selectivity: given once per enantiomer pair, on the line of the first enantiomer, rat α7 binding.
Source text: As used herein, the term “selectively binds,” “selective binding,” and cognates thereof refer to anabaseine compounds that preferentially bind one type of nicotinic acetylcholine receptor relative to another type of acetylcholine receptor (e.g., α7 nAChR versus the α4β2 nAChR). Because Ki is an inverse measure of affinity, binding selectivity of a compound for the α7 nAChR versus the α4β2 nAChR is expressed by dividing the Ki for binding to the α4β2 nAChR by the Ki for binding to the α7 nAChR. In one embodiment, a compound of the invention selectively binds α7 nAChR compared to α4β2 nAChR. The selectivity of a compound of the invention for α7 nAChR over α4β2 nAChR is at least 2, 3, 4, 5, 6, 7, 8, 9, 10, 11, 12, 13, 14, 15, or more. In another embodiment, a compound of the invention selectively binds α4β2 nAChR compared to α7 nAChR. The selectivity of a compound of the invention for α4β2 nAChR over α7 nAChR is at least 2, 3, 4, 5, 6, 7, 8, 9, 10, 11, 12, 13, 14, 15, or more. Binding to the α7 and α4β2 nAChR (including relative binding to each of these receptors) can be determined by the skilled artisan using the methods known in the art, in particular in view of the teachings provided herein. In particular, the assays used to determine selective binding are according to Marks and Collins for [^125I]alpha-bungarotoxin experiments (for alpha7 receptor binding) and a modified method by Pabreza et al. for [^3H]cytisine experiments (for α4β2), used as described in US 2009/0215705.
as §1
Radioligands used in the displacement binding assays were obtained from Perkin Elmer Life and Analytical Sciences (Boston, Mass.). ^3H-Cytisine was used to selectively bind to alpha4beta2 nAChRs and ^125I-α-bungarotoxin (α-Btx) for alpha? nAChRs. ^3H-Cytisine (34 Ci/mmol) experiments were performed according to Flores et al. (1992) with a few minor alterations, specifically that the incubation time was increased to four hours at 4° C. to assure binding equilibrium. The ^125I-α-Btx (136 Ci/mmol) experiments involved 37° C. incubation for three hours to assure equilibration. Both radioligands were generally tested at final concentrations of 1 nM. Membranes at the above mentioned concentrations were suspended in binding saline containing 2 mg/ml of bovine serum albumin (Sigma, St. Louis, Mo.) to reduce non-specific binding. For each radioligand, nonspecific binding was measured in the presence of a final concentration of 1 mM (S)-nicotine hydrogen tartrate salt (Sigma, St. Louis, Mo.). After incubation, radioligand bound to membranes in 48 tubes was rapidly collected by vacuum filtration using a Brandel cell harvester (Gaithersburg, Md.) and Whatman GF/C glass fiber filters that were pre-soaked in 0.5% polyethylenimine for 45 minutes to reduce nonspecific binding. The radiolabeled membranes were rapidly washed three times with 3 ml ice-cold binding saline to separate bound from free radioligand. Filters containing ^3H-cytisine bound membranes were placed in 20 ml scintillation tubes and suspended in 8 mls of 30% Scintisafe scintillation fluid (Fisher), then counted in a Beckman LS-6500 liquid scintillation counter (Fullerton, Calif.). Filters containing ^125I-α-Btx bound membranes were placed in 4 ml scintillation vials and counted in a Beckman 5500B gamma counter (Fullerton, Calif.). […]

The mark [3] stands for this setting: rat brain membranes, 3H-cytisine 1 nM, 4° C. four hours, read-out: α4β2 Receptor Rat Ki.
Setting [4] is: rat brain membranes, 125I-α-Btx 1 nM, 37° C. three hours, read-out: α7 Receptor Rat Ki.

Read-outs that look alike come from different tables or passages of the source.

T1 sequence (P09483 31-630): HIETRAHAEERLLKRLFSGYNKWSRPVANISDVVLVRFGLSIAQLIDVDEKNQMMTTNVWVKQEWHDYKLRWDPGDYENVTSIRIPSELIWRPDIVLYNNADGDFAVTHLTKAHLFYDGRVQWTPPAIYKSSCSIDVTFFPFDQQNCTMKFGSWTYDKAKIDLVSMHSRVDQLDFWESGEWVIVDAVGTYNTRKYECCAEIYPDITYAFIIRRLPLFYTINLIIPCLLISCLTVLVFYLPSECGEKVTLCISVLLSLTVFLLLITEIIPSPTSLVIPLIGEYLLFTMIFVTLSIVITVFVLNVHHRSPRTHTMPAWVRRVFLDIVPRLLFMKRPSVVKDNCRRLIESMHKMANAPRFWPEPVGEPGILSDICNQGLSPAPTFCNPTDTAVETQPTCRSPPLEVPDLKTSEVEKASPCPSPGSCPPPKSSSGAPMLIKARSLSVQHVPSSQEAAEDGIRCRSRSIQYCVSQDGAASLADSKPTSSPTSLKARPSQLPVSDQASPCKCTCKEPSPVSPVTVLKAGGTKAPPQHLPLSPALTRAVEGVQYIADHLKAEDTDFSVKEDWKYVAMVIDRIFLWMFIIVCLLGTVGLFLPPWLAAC
T1 sequence (P12390 25-500): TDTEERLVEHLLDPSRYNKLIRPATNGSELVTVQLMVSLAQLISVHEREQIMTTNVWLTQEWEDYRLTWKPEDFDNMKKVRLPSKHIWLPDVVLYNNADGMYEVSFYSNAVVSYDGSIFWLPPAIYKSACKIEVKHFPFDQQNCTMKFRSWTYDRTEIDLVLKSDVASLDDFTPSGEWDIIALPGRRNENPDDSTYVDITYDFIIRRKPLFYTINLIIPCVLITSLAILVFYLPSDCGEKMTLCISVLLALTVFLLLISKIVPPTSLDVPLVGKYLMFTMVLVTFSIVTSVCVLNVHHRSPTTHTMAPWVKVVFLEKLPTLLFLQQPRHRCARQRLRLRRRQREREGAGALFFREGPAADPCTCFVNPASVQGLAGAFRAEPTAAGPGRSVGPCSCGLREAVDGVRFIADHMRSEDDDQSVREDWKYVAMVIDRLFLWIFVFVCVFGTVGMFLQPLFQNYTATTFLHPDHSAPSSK

With `c1cncc(C2=NCCCC2)c1` [Compound 1, anabaseine, reference compound], the Ki (usually the dissociation constant of the complex between target and ligand, obtained from inhibition or displacement) in assay [1] came to 0.076 µM. Further, in assay [2], the affinity, expressed as Ki, was 0.29 µM and the “α7/α4β2 Selectivity (Selectivity factor)” value is listed as 0.26.

In the case of `COc1ccc(/C=C2\CCCN=C2c2cccnc2)c(OC)c1` [Compound 2, 3-(2,4-dimethoxybenzylidene)-anabaseine, reference compound], the “α7/α4β2 Selectivity (Selectivity factor)” value in assay [2] worked out at 1.91.

Regarding `Oc1ccc(C=C2CCCN=C2c2cccnc2)cc1` [Compound 3, reference compound], the Ki in assay [1] (setting [3]) worked out at 0.45 µM. Besides, in assay [2], the “α7/α4β2 Selectivity (Selectivity factor)” value was 1.2.

For the molecule `COc1ccc(C=C2C(c3cccnc3)=NCC[C@H]2C)c(OC)c1` [Compound 4, 3-(DMXB)-4(R)-methyl-anabaseine], the Ki in assay [1] (setting [3]) worked out at 0.153 µM. In addition, in assay [2], the inhibition constant Ki was 0.062 µM, the “α7/α4β2 Selectivity (Selectivity factor)” value is listed as 2.5 and the “Enantiomeric Selectivity” value was 2.0.

As to `COc1ccc(/C=C2/C(c3cccnc3)=NCC[C@@H]2C)c(OC)c1` [Compound 5, 3-(2,4-Dimethoxybenzylidene)-4(S)-methyl-anabaseine], the Ki was 0.191 µM in assay [1] (setting [3]) and 0.125 µM in assay [2]. In assay [2], the “α7/α4β2 Selectivity (Selectivity factor)” value came to 1.5.

In the case of `COc1ccc(C=C2CC(C)CN=C2c2cccnc2)c(OC)c1` (stereo not shown) [Compound 6], the “Enantiomeric Selectivity” value in assay [2] is given as 6.8. For the same molecule, the Ki in assay [2] (setting [4]) is 0.22 µM.

`COc1ccc(C=C2CC(C)CN=C2c2cccnc2)c(OC)c1` (stereo not shown) [Compound 7] registered a Ki in assay [2] of 1.5 µM.

Turning to `COc1ccc(/C=C2\CC[C@H](C)N=C2c2cccnc2)c(OC)c1` [Compound 8, 3-(2,4-Dimethoxybenzylidene)-6(S)-methyl-anabaseine], the Ki in assay [1] (setting [3]) is 0.588 µM. In assay [2], the affinity corresponds to a Ki of 0.208 µM, the “α7/α4β2 Selectivity (Selectivity factor)” value was found to be 2.8 and the “Enantiomeric Selectivity” value was 3.3.

For `COc1ccc(C=C2CC[C@@H](C)N=C2c2cccnc2)c(OC)c1` [Compound 9, 3-(DMXB)-6(R)-methyl-anabaseine], the inhibition constant (Ki) in assay [1] (setting [3]) was 0.344 µM; in assay [2] it was 0.401 µM. Further, the “α7/α4β2 Selectivity (Selectivity factor)” value in assay [2] amounted to 0.86.

As to `COc1ccc(C=C2C(c3cccnc3)=NC(C)CC2C)c(OC)c1` (stereo not shown) [Compound 10], the Ki in assay [1] (setting [3]) worked out at 0.0498 µM. In assay [2], the “α7/α4β2 Selectivity (Selectivity factor)” value is given as 1.3 and the “Enantiomeric Selectivity” value was found to be 11. In addition, the Ki in assay [2] (setting [4]) turned out to be 0.0376 µM.

For `COc1ccc(/C=C2/C(c3cccnc3)=N[C@H](C)C[C@@H]2C)c(OC)c1` [Compound 11], the results for the inhibition constant (Ki) in assay [1] (setting [3]) and in assay [2] (setting [4]) were 0.61 µM and 0.409 µM, respectively. The “α7/α4β2 Selectivity (Selectivity factor)” value in assay [2] came to 1.5.

In the case of `COc1ccc(/C=C2/C(c3cccnc3)=N[C@H]3CC[C@@H]2C3)c(OC)c1` [Compound 12, (1S,5R,E)-4-(2,4-dimethoxybenzylidene)-3-(pyridin-3-yl)-2-azabicyclo[3.2.1]oct-2-ene], the Ki in assay [1] (setting [3]) worked out at 0.219 µM. In assay [2], the affinity, expressed as Ki, was 0.0164 µM; the “α7/α4β2 Selectivity (Selectivity factor)” value was determined as 13; the “Enantiomeric Selectivity” value is reported as 270.

`COc1ccc(/C=C2/C(c3cccnc3)=N[C@@H]3CC[C@H]2C3)c(OC)c1` [Compound 13, (1R,5S,E)-4-(2,4-dimethoxybenzylidene)-3-(pyridin-3-yl)-2-azabicyclo[3.2.1]oct-2-ene]: the Ki in assay [1] (setting [3]) is 0.347 µM. In assay [2], the Ki is 4.4 µM and the “α7/α4β2 Selectivity (Selectivity factor)” value worked out at 0.079.

On to `Oc1ccc(/C=C2/C(c3cccnc3)=N[C@H]3CC[C@@H]2C3)cc1` [Compound 14, 4-((E)-((1S,5R)-3-(pyridin-3-yl)-2-azabicyclo[3.2.1]oct-2-en-4-ylidene)methyl)phenol], for which the Ki in assay [1] was 0.0725 µM. Moreover, in assay [2], the inhibitory constant (Ki) is 0.0341 µM and the “α7/α4β2 Selectivity (Selectivity factor)” value was determined as 2.1.

With `C[C@H]1CC/C(=C\c2ccc(N)cc2)C(c2cccnc2)=N1` [Compound 15, 3-(4-Aminobenzylidene)-6(S)-methyl-anabaseine], the Ki in assay [1] (setting [3]) was determined as 0.314 µM. In assay [2], the Ki was determined as 0.073 µM and the “α7/α4β2 Selectivity (Selectivity factor)” value is 4.3.

Molecule `Nc1ccc(/C=C2/C(c3cccnc3)=N[C@H]3CC[C@@H]2C3)cc1` [Compound 16, 3-(4-Aminobenzylidene)-4(R),6(S)-ethylene-anabaseine] yielded a Ki in assay [1] of 0.0341 µM. Moreover, in assay [2], affinity was put at a Ki of 0.00343 µM and the “α7/α4β2 Selectivity (Selectivity factor)” value was 9.9.
